Literature values in EP3913370A1, “METHOD FOR DIAGNOSING CARCINOMAS USING IRGD AS A TUMOR MARKER BOOSTER” (Piiper, Albrecht, priority 2020, dated 2021).

What was measured:
[1] = human, in vivo
[2] = in vivo

For N=C(N)NCCC[C@@H]1NC(=O)[C@@H](N)CSSC[C@@H](C(=O)O)NC(=O)[C@H](CC(=O)O)NC(=O)[C@@H]2CCCN2C(=O)CNC(=O)[C@H](CCCCN)NC(=O)[C@H](CC(=O)O)NC(=O)CNC1=O [iRGD, CRGDKGPDC (SEQ ID No. 1)], the toxicity in humans [1] is listed as “low toxicity” and the “toxicity associated with administration” value [2] is listed as “no toxicity”.
